Assay results taken from patent US7674771B2, “Antimicrobial peptides and utilization of the same” (Toagosei Co., Ltd, priority 2003, dated 2010).
Like-named read-outs stand apart in the source and are kept apart here. Peptide text beside a SMILES is read from it.

Legend:
[1] = tested on: Staphylococcus aureus IFO 12732; format: cell-based
Protocol: (§1) Regarding the antimicrobial peptide (samples 1 to 20) related to the present invention, the antimicrobial activities (minimum inhibitory concentration: MIC) with respect to gram-negative bacteria (Escherichia coli IFO 3972) and gram-positive bacteria (Staphylococcus aureus IFO 12732) were determined by a liquid medium dilution technique using a 96-well microplate.
(§2) First, a drug (synthesized polypeptide) solution having a concentration of 40 times of the highest test concentration was prepared using sterile distilled water, and liquid-bouillon mediums (more specifically, “Mueller Hinton Broth” manufactured by DIFCO) including cation and having drug concentrations of 100, 50, 25, 12.5, 6.3, 3.1, 1.6 and 0.8 μM were respectively produced. The cation included was prepared as follows: dissolving 3.68 g of CaCl2.2H2O in 100 mL of purified water (10 mg.Ca^2+/mL), and thereafter adding 500 μL thereof into 100 mL of Mueller Hinton Broth; and dissolving 8.36 g of MgCl2.6H2O in 100 mL of purified water (10 mg.Mg^2+/mL), and thereafter adding 250 μL thereof into 100 mL of Mueller Hinton Broth. Thereafter, the produced liquid-bouillon mediums including the drug of each concentration were then fed to the 96-well microplate at […] a time.
(§3) At the same time, test bacteria cultured for 18 hours at 37° C. on an agar plate (“Muller Hinton Agar” manufactured by DIFCO) were gathered by scratching with a loop, and then suspended in a sterilized physiological saline. Bacterial suspension 5 μL prepared at an equivalent of 2×10^7 cells/mL was respectively inoculated (number of bacteria to be tested: approximately 1×10^6 cells/mL) onto the drug solution and fed to each well of the above-described microplate. After inoculation, the microplate was then incubated in an incubator at 37° C., and the presence of bacteria was evaluated based on the turbidity 24 hours later. The minimum drug concentration (polypeptide concentration), in which an increased in turbidity caused by bacteria was not detected at the time of measurement, was defined as MIC (minimum inhibitory concentration) (unit: μM) in the present embodiment. In addition, MIC were determined in the same manner using polymyxin B as a comparison.

[2] = tested on: Escherichia coli IFO 3972; test: MIC by liquid medium dilution technique, 96-well microplate, gram-negative bacteria; format: cell-based
Protocol: as §1, §2, §3

S. aureus = format: cell-based, Staphylococcus aureus
Protocol: as §2, §3
Next, the antimicrobial activities (MIC) against gram-positive bacteria (S. aureus) in the presence of serum were tested with the same method as Example 2. […] Thereafter, the produced liquid-bouillon mediums including the drug and the serum of each concentration were then fed to the 96-well microplate at […] a time, and MIC were determined by the method same as Example 2. Sample X in the table is a mixture of sample 1 and sample 16 based on a mass ratio of 1:1. “-” in the table indicate “untested”.

[3] = Mueller Hinton Broth with cation, 37° C., turbidity after 24 hours

Molecule | Antimicrobial Activities (MIC) S. aureus ([1]; IFO 12732, 24 h) [µM] | Antimicrobial Activities (MIC) E. coli ([2]; IFO 3972, 24 h) [µM] | other results
H-RKKKRKVLYLGAVR-NH2 [sample 12, RKKKRKVLYLGAVR-CONH2] | 12.5 | 50 | –
H-RIRKKLRYIGSR-NH2 [comparative sample 6, RIRKKLRYIGSR-CONH2, reference compound] | 50 | >100 | –
H-RKRRLMWWMLKKLR-NH2 [sample 17, RKRRLMWWMLKKLR-CONH2] | 3.1 | 6.3 | –
H-LKRKLQRLMWWMLR-NH2 [sample 18, LKRKLQRLMWWMLR-CONH2] | 6.3 | 12.5 | –
H-LKRKLQRLMWWML-NH2 [sample 15, LKRKLQRLMWWML-CONH2] | 3.1 | 12.5 | Antimicrobial Activities (MIC) against S. aureus, horse serum concentration 10% (S. aureus): 6.3 µM
H-RKKKRKVVVYWLLR-NH2 [sample 9, RKKKRKVVVYWLLR-CONH2] | 3.1 | 12.5 | –
H-RIRKKLRLMWWMLAR-NH2 [sample 7, RIRKKLRLMWWMLAR-CONH2] | 3.1 | 6.3 | Antimicrobial Activities (MIC) against S. aureus, horse serum concentration 10% (S. aureus): 3.1 µM; Antimicrobial Activities (MIC) against S. aureus, horse serum concentration 20% (S. aureus): 6.3 µM; Antimicrobial Activities (MIC) against S. aureus, horse serum concentration 50% (S. aureus): 6.3 µM
H-RKRKRKRLMWWML-NH2 [sample 13, RKRKRKRLMWWML-CONH2] | 3.1 | 6.3 | –
H-RKKRRQRRRLMWWML-NH2 [sample 19, RKKRRQRRRLMWWML-CONH2] | 6.3 | 12.5 | –
H-LMWWMLRIRKKLRVGR-NH2 [sample 20, LMWWMLRIRKKLRVGR-CONH2] | 3.1 | 6.3 | –
H-LMWWML-NH2 [comparative sample 3, LMWWML-CONH2, reference compound] | >100 | >100 | –
H-RKKKRKVLMWWMLKPV-NH2 [sample 21, RKKKRKVLMWWMLKPV-CONH2] | – | – | Antimicrobial Activities (MIC) against S. aureus, horse serum concentration 10% (S. aureus): 1.6 µM; antimicrobial activity against S. aureus in the presence of serum, in words (S. aureus; horse serum, Table 3): particularly high antimicrobial activity
H-RAVTLYLGAVAA-NH2 [comparative sample 4, RAVTLYLGAVAA-CONH2, reference compound] | – | – | Antimicrobial Activities (MIC) S. aureus [1, 3]: >100 µM; Antimicrobial Activities (MIC) E. coli [2, 3]: >100 µM
H-RKKKRKVLMWWML-NH2 [sample 2, RKKKRKVLMWWML-CONH2] | 3.1 | 12.5 | –
H-RKKKRKVYIGSR-NH2 [comparative sample 7, RKKKRKVYIGSR-CONH2, reference compound] | 12.5 | 100 | –
H-RKKKRKVLLTAKMR-NH2 [sample 10, RKKKRKVLLTAKMR-CONH2] | 12.5 | 50 | –
H-LMWWMLRKKKRKV-NH2 [sample 5, LMWWMLRKKKRKV-CONH2] | 3.1 | 50 | –
H-RKKKRKVFFYMVIR-NH2 [sample 11, RKKKRKVFFYMVIR-CONH2] | 3.1 | 6.3 | –
H-RLLTAKMLMWWMLR-NH2 [comparative sample 5, RLLTAKMLMWWMLR-CONH2, reference compound] | 12.5 | >100 | –
C[C@@H](O)[C@H](N)C(=O)NCC(=O)N[C@H](C(=O)NCC(N)=O)[C@@H](C)O [comparative sample 2, TGTG-CONH2, reference compound] (H-TGTG-NH2) | >100 | >100 | –
